Measured values taken from US20150104868A1, “Methods of Maintaining and Improving Biological Cell Function and Activity” (GARGILL INCORPORATED, priority 2012, published 2015).

Tested on: CRL 1730 HUVECs
Assay: Microarray transcriptomics of HUVEC (HGERT/HG, HG/NG)
Type: cell-based, human
[1] = Atherosclerosis, ATP binding and metabolism
[2] = Atherosclerosis, Cysteine/gluathione
[3] = Atherosclerosis, Cytokine activity
[4] = Atherosclerosis, Endothelial cell related
[5] = Atherosclerosis, Heat shock protein
[6] = Atherosclerosis, NF-kappaB transcription
[7] = Atherosclerosis, Nitric oxide synthase activity
[8] = Atherosclerosis, Peptidase activity
[9] = Atherosclerosis, Plasminogen activators
[10] = Atherosclerosis, Reactive oxygen species

OC[C@@H](O)[C@@H](O)CO [ERT, meso-1,2,3,4-tetrahydroxybutane]
0.96 Ω: HGERT/HG WFDC12 (WAP four-disulfide core domain 12) [8]
0.94 Ω: HGERT/HG CORO1A (Coronin, actin binding protein, 1A) (Atherosclerosis, Actin binding)
Ψ 1.03: HGERT/HG DCAKD (Dephospho-CoA kinase domain containing) [1] | HGERT/HG MARK2 (MAP/microtubule affinity-regulating kinase 2) [1] | HGERT/HG PLEC1 (Plectin) (Atherosclerosis, Actin binding) | HGERT/HG DCAKO (Dephospho-CoA kinase domain containing) (Breast cancer, ATP metabolism)
Ψ 1.01: HGERT/HG ACTR5 (ARP5 actin-related protein 5 homolog (yeast)) [1] | HGERT/HG ATAD3B (ATPase family, AAA domain containing 3B) [1] | HGERT/HG KIF1B (Kinesin family member 1B) [1] | HGERT/HG LIMK1 (LIM domain kinase 1) [1] | HGERT/HG RPS6KA2 (Ribosomal protein S6 kinase, 90kDa, polypeptide 2) [1] | HGERT/HG AHCYL1 (Adenosylhomocysteinase-like 1) [2] | HGERT/HG BMP6 (Bone morphogenetic protein 6) [3] | HGERT/HG ENG (Endoglin) [4] | HGERT/HG FOXC1 (Forkhead box C1) [4] | HGERT/HG HIG2 (Chromosome 7 open reading frame 68) [4] | HGERT/HG JUP (Junction plakoglobin) [4] | HGERT/HG JUP (Junction plakoglobin) (Atherosclerosis, Endothelial cell-cell adhesion) | HGERT/HG DNAJC11 (DnaJ (Hsp40) homolog, subfamily C, member 11) [5] | HGERT/HG PTPLAD1 (Protein tyrosine phosphatase-like A domain containing 1) [6] | HGERT/HG TP53BP2 (Tumor protein p53 binding protein, 2) [6] | HGERT/HG ENG (Endoglin) [7] | HGERT/HG HIG2 (Chromosome 7 open reading frame 68) [7] | HGERT/HG OTUD5 (OTU domain containing 5) [8] | HGERT/HG SENP3 (SUMO1/sentrin/SMT3 specific peptidase 3) [8] | HGERT/HG JUP (Junction plakoglobin) [10] | HGERT/HG TGM2 (Transglutaminase 2 (C polypeptide, protein-glutamine-gamma-glutamyltransferase)) [10] | HGERT/HG ACTR5 (ARP5 actin-related protein 5 homolog (yeast)) (Breast cancer, ATP metabolism) | HGERT/HG ATAD38 (ATPase family, AAA domain containing 38) (Breast cancer, ATP metabolism) | HGERT/HG KF1B (Kinesin family member 1B) (Breast cancer, ATP metabolism) | HGERT/HG LIMK1 (LIM domain kinase 1) (Breast cancer, ATP metabolism)
Ψ 1.00: HGERT/HG ATP5O (ATP synthase, H+ transporting, mitochondrial F1 complex, O subunite) (Breast cancer, ATP metabolism)
0.98 Ω: HGERT/HG ABCB10 (ATP-binding cassette, sub-family B (MDR/TAP), member 10) [1] | HGERT/HG ACTL6A (Actin-like 6A) [1] | HGERT/HG ATP5E (ATP synthase, H+ transporting, mitochondrial F1 complex, epsilon subunit) [1] | HGERT/HG MAP4K3 (Mitogen-activated protein kinase kinase kinase kinase 3) [1] | HGERT/HG STK39 (Serine threonine kinase 39) [1] | HGERT/HG TRIT1 (TRNA isopentenyltransferase 1) [1] | HGERT/HG IL17D (Interleukin 17D) [3] | HGERT/HG SDHD (Succinate dehydrogenase complex, subunit D, integral membrane protein) [10] | HGERT/HG PGRMC2 (Progesterone receptor membrane component 2) (Atherosclerosis, Steroid hormone receptor activity) | HGERT/HG ABCB10 (ATP-binding cassette, sub-family B (MDR/TAP), member 10) (Breast cancer, ATP metabolism) | HGERT/HG ACTL6A (Actin like 6A) (Breast cancer, ATP metabolism) | HGERT/HG MAP4K3 (Mitogen-activated protein kinase kinase kinase kinase 3) (Breast cancer, ATP metabolism) | HGERT/HG RP2 (Retinitis pigmentosa 2 (X-linked recessive)) (Breast cancer, ATP metabolism) | HGERT/HG STK39 (Serine threonine kinase 39) (Breast cancer, ATP metabolism)
0.99 Ω: HGERT/HG ATAD1 (ATPase family, AAA domain containing 1) [1] | HGERT/HG ATP2C1 (ATPase, Ca++ transporting, type 2C, member 1) [1] | HGERT/HG C3orf26 (Chromosome 3 open reading frame 26) [1] | HGERT/HG DDX54 (DEAD (Asp-Glu-Ala-Asp) box, polypeptide 54) [1] | HGERT/HG FASTKD1 (FAST kinase domains 1) [1] | HGERT/HG FASTKD3 (FAST kinase domains 3) [1] | HGERT/HG HLTF (Helicase-like transcription factor) [1] | HGERT/HG HSPE1 (Heat shock 10kDa protein 1 (chaperonin 10)) [1] | HGERT/HG RP2 (Retinitis pigmentosa 2 (X-linked recessive)) [1] | HGERT/HG SLK (STE20-like kinase) [1] | HGERT/HG SUCLA2 (Succinate-CoA ligase, ADP-forming, beta subunit) [1] | HGERT/HG VPS4B (Vacuolar protein sorting 4 homolog B (S. cerevisiae)) [1] | HGERT/HG ATIC (5-aminoimidazole-4-carboxamide ribonucleotide formyltransferase/IMP cyclohydrolase) [2] | HGERT/HG ESD (Esterase D) [2] | HGERT/HG KRIT1 (KRIT1, ankyrin repeat containing) [4] | HGERT/HG DNAJC8 (DnaJ (Hsp40) homolog, subfamily C, member 8) [5] | HGERT/HG COMMD7 (COMM domain containing 7) [6] | HGERT/HG NDFIP2 (Nedd4 family interacting protein 2) [6] | HGERT/HG ACVR2A (Activin A receptor, type IIA) [7] | HGERT/HG OSTM1 (Osteopetrosis associated transmembrane protein 1) (Atherosclerosis, Osteoclast differentiation) | HGERT/HG ATXN3 (Ataxin 3) [8] | HGERT/HG PLSCR4 (Phospholipid scramblase 4) (Atherosclerosis, Phospholipid scramblase) | HGERT/HG COX8A (Cytochrome c oxidase subunit VIIIA (ubiquitous)) [10] | HGERT/HG MPHOSPH6 (M-phase phosphoprotein 6) [10] | HGERT/HG SMOX (Spermine oxidase) [10] | HGERT/HG TCF12 (Transcription factor 12) [10] | HGERT/HG ATAD1 (ATPase family, AAA domain containing 1) (Breast cancer, ATP metabolism) | HGERT/HG ATP2C1 (ATPase, Ca++ transporting, type 2C, member 1) (Breast cancer, ATP metabolism) | HGERT/HG ATP5E (ATP synthase, H+ transporting, mitochondrial F1 complex, epsilon subunit) (Breast cancer, ATP metabolism) | HGERT/HG C3orf26 (Chromosome 3 open reading frame 26) (Breast cancer, ATP metabolism) | HGERT/HG DDX54 (DEAD (Asp-Glu-Ala-Asp) box, polypeptide 54) (Breast cancer, ATP metabolism) | HGERT/HG FASTDK1 (FAST kinase domains 1) (Breast cancer, ATP metabolism) | HGERT/HG FASTKD3 (FAST kinase domains 1) (Breast cancer, ATP metabolism) | HGERT/HG HLTF (Helicase-like transcription factor) (Breast cancer, ATP metabolism) | HGERT/HG HSPE1 (Heat shock 10kDa protein 1 (chaperonin 10)) (Breast cancer, ATP metabolism) | HGERT/HG SLK (STE20-like kinase) (Breast cancer, ATP metabolism) | HGERT/HG SUCLA2 (Succinate-CoA ligase, ADP-forming, beta subunit) (Breast cancer, ATP metabolism)
Ψ 1.02: HGERT/HG ATP13A1 (ATPase type 13A1) [1] | HGERT/HG CSNK1G1 (Casein kinase 1, gamma 1) [1] | HGERT/HG LVN (V-yes-1 Yamaguchi sarcoma viral related oncogene homolog) [1] | HGERT/HG IL13RA1 (Interleukin 13 receptor, alpha 1) [3] | HGERT/HG GPR124 (G protein-coupled receptor 124) [4] | HGERT/HG NOTCH1 (Notch 1) [4] | HGERT/HG BRD2 (Bromodomain containing 2) [9] | HGERT/HG RHOJ (Ras homolog gene family, member J) [9] | HGERT/HG ATP13A1 (ATPase type 13A1) (Breast cancer, ATP metabolism) | HGERT/HG CSNK1G1 (Casein kinase 1, gamma 1) (Breast cancer, ATP metabolism) | HGERT/HG LYN (V-yes-1 Yamaguchi sarcoma viral related oncogene homolog) (Breast cancer, ATP metabolism)
Ψ 1.06: HGERT/HG SOS1 (Son of sevenless homolog 1 (Drosophila)) [10]
1.00 Ω: HGERT/HG ATP5O (ATP synthase, H+ transporting, mitochondrial Fl complex, O subunit) [1] | HGERT/HG CARS (Cysteinyl-tRNA synthetase) [1] | HGERT/HG YME1L1 (YME1-like 1 (S. cerevisiae)) [1] | HGERT/HG CARS (Cysteinyl-tRNA synthetase) (Breast cancer, ATP metabolism)
